Broadly, the EC50 is the concentration needed to bring the measured effect to its halfway point.

SMILES strings stand for the structures. Converted amounts (≈) assume the structure as drawn. Marks after values point to notes of the source that are not given here.

The nature of data set [1]: In vitro release of Comp-A from nanoparticles by dialysis against HBS (pH 7) at 37° C. Format: physicochemical. Conditions: dialyzed against >1000X volume HBS (pH 7) at 37° C. Here is the method: • 5. Immediately following formulation, NPs were diluted to 4× volume in HBS. • 6. Pall 30 kDa MWCO centrifugal filters were used for solvent exchange to HBS and to concentrate formulations (2000×g, 21° C.). • 7. Particle size and polydispersity index (PDI) were analyzed using a Malvern Zetasizer (dynamic light scattering; DLS). […] Final formulations were sterile filtered through 0.22 μm syringe filters and stored at −80° C. in MrFrosty freezing containers. The following day formulations were moved to cryogenic freezer boxes for storage prior to shipping. • 9. A sample of each formulation was thawed to room temperature and dialyzed against >1000 volumes of 1×HBS (pH 7) at 37° C. for 6 hours. Samples were collected at 2 mins, 30 mins, 2 hours and 6 hours and analyzed for drug content by UPLC to determine particle release characteristics.

Data set [2] in a line: Tolerability of intravitreally administered solution of the compound of Formula (I). Here is the method: Based on expected solubility, a maximum feasible intravitreal dose of 44 μg of the compound of Formula (I) in 50 uL pH 7.85 aqueous buffer (sterile saline for injection, phosphate buffered saline or HEPES buffered saline) was administered to Dutch Belted rabbits.
Ophthalmoscopic examinations (slit lamp), ocular scoring, and intraocular pressure were observed through 5 days post-administration.

For data set [3], the system named is MDM2-amplified tumor cell line SJSA. The experiment in a line: Induction of p21 mRNA by Comp-A in SJSA cells. Format: cell-based.
[4] abbreviates: 44 μg in 50 uL pH 7.85 aqueous buffer, intravitreal, rabbit.

As to `CC(C)[C@@H](CS(=O)(=O)C(C)C)N1C(=O)[C@@](C)(CC(=O)O)C[C@H](c2cccc(Cl)c2)[C@H]1c1ccc(Cl)cc1` [Comp-A, 2-((3R,5R,6S)-5-(3-chlorophenyl)-6-(4-chlorophenyl)-1-((S)-1-(isopropylsulfonyl)-3-methylbutan-2-yl)-3-methyl-2-oxopiperidin-3-yl) Acetic Acid], the “% Release after 2 h dialysis” value in data set [1] (2 h) was below 1%. Further, the “% Release after 6 h dialysis” value in data set [1] (6 h) is reported as 0* %. In addition, the “Changes in intra-ocular pressure” value in data set [2] (setting [4]) is recorded as “no changes”. Besides, the “Ophthalmologic observations through 5 days” value in data set [2] (setting [4]) is on record as “no ophthalmologic observations”. The Tolerability entry in data set [2] (22 microgram/eye in PBS (1×) and in HEPES buffered saline) was “no findings”; in data set [2] (44 microgram/eye in PBS (1×) and in HEPES buffered saline) it was “no findings”. This compound registered a 50% effective concentration (EC50) in data set [3] of 0.0262 µg/mL (≈ 0.0461 µM).

Source of the values: US20220040166A1, “Methods and Compositions of Treating an Ophthalmic Condition” (KARTOS THERAPEUTICS, priority 2018, published 2022).
